Legend:
[1] = Tmax in Sprague-Dawley rat at 30 mg/kg,po measured upto 24 hrs by UPLC-MS/MS analysis; type: ADME, organism-based; settings: in vivo
[2] = AUClast in Sprague-Dawley rat at 30 mg/kg,po measured upto 24 hrs by UPLC-MS/MS analysis; type: ADME, organism-based; parameters: time < 24 hrs, dose 30 mg/kg, route po; settings: in vivo
[3] = Cmax in Sprague-Dawley rat at 1 mg/kg,iv measured upto 24 hrs by UPLC-MS/MS analysis; type: ADME, organism-based; parameters: dose 1 mg/kg, time < 24 hrs, route iv; settings: in vivo
[4] = Ratio of Cmax/Cmin in Sprague-Dawley rat at 3 mg/kg,po measured after 24 hrs by UPLC-MS/MS analysis; type: ADME, organism-based; settings: in vivo
[5] = Half life in Sprague-Dawley rat at 1 mg/kg,iv measured upto 24 hrs by UPLC-MS/MS analysis; type: ADME, organism-based; settings: in vivo
[6] = AUClast in Sprague-Dawley rat at 3 mg/kg,po measured upto 24 hrs by UPLC-MS/MS analysis; type: ADME, organism-based; parameters: time < 24 hrs, dose 3 mg/kg, route po; settings: in vivo
[7] = target: Voltage-gated inwardly rectifying potassium channel KCNH2 (Homo sapiens, UniProt Q12809); assay: Inhibition of human ERG by patch-clamp assay; type: toxicity
Chain of Voltage-gated inwardly rectifying potassium channel KCNH2 (Q12809 whole entry): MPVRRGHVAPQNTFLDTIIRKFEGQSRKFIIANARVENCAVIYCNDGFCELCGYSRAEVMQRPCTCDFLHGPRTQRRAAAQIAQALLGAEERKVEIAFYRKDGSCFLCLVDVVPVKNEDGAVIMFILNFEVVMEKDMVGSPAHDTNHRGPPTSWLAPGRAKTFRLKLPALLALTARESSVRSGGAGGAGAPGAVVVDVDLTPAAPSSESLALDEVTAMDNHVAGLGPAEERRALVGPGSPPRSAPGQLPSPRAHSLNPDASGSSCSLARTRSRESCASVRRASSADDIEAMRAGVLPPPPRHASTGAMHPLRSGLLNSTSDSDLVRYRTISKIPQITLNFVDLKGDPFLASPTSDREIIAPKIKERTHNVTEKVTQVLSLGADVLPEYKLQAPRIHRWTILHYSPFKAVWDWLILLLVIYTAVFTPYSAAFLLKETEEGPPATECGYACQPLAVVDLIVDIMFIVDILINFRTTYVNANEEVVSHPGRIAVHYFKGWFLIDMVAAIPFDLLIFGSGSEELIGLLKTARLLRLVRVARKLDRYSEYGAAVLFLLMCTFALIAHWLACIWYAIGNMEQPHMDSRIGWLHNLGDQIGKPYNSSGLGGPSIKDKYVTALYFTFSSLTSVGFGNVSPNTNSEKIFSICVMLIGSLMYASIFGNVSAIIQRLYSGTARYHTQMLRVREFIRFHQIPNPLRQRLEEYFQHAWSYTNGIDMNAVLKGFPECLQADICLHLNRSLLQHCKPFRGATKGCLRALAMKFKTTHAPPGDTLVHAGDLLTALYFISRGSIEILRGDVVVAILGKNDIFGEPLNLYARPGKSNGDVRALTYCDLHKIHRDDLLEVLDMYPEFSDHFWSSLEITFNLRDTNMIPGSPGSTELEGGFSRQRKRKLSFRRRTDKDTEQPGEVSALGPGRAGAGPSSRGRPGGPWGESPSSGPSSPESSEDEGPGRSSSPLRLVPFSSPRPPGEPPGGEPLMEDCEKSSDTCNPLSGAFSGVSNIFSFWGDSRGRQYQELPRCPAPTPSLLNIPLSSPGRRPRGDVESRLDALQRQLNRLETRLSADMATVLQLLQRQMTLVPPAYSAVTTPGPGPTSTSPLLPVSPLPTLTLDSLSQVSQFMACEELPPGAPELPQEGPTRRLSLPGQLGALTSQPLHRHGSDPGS

[8] = Clearance in Sprague-Dawley rat at 1 mg/kg,iv measured upto 24 hrs by UPLC-MS/MS analysis; type: ADME, organism-based; settings: in vivo
[9] = Aqueous solubility of compound at pH 4 by UPLC analysis; type: physicochemical; settings: aqueous medium, read-out: solubility
[10] = Cmax in Sprague-Dawley rat at 3 mg/kg,po measured upto 24 hrs by UPLC-MS/MS analysis; type: ADME, organism-based; parameters: dose 3 mg/kg, time < 24 hrs, route po; settings: in vivo
[11] = Ratio of Cmax/Cmin in Sprague-Dawley rat at 1 mg/kg,iv measured after 24 hrs by UPLC-MS/MS analysis; type: ADME, organism-based; settings: in vivo
[12] = Aqueous solubility of compound at pH 6.5 by UPLC analysis; type: physicochemical; settings: aqueous medium, read-out: solubility
[13] = Cmax in Sprague-Dawley rat at 30 mg/kg,po measured upto 24 hrs by UPLC-MS/MS analysis; type: ADME, organism-based; parameters: time < 24 hrs, dose 30 mg/kg, route po; settings: in vivo
[14] = Tmax in Sprague-Dawley rat at 3 mg/kg,po measured upto 24 hrs by UPLC-MS/MS analysis; type: ADME, organism-based; settings: in vivo
[15] = Cmin in Sprague-Dawley rat at 1 mg/kg,iv measured after 24 hrs by UPLC-MS/MS analysis; type: ADME, organism-based; settings: in vivo, read-out: Cmin
[16] = Volume of distribution at steady state in Sprague-Dawley rat at 1 mg/kg,iv measured upto 24 hrs by UPLC-MS/MS analysis; type: ADME, organism-based; settings: in vivo, read-out: Vdss
[17] = AUClast in Sprague-Dawley rat at 1 mg/kg,iv measured upto 24 hrs by UPLC-MS/MS analysis; type: ADME, organism-based; parameters: time < 24 hrs, dose 1 mg/kg, route iv; settings: in vivo

Tmax [1]: 3 h | AUC(0-t) at 24 h [2]: 20.9 µM·h | Cmax [3]: 2510 nM | Ratio [4]: 1064 | half-life [5]: 7 h | AUC(0-t) at 24 h [6]: 0.384 µM·h | clearance [8]: 38.7 mL/min/kg | solubility [9]: < 1 µg/mL | Cmax [10]: 266 nM | Ratio [11]: 8978.6 | solubility [12]: < 1 µg/mL | Cmax [13]: 5110 nM | Tmax [14]: 0.5 h | concentration at 24 h [15]: 0.28 nM | Vd [16]: 1.5 L/kg | AUC(0-t) at 24 h [17]: 0.636 µM·h
Structure (SMILES): COC(=O)N[C@H](C(=O)N[C@@H](Cc1ccccc1)[C@@H](O)CN(Cc1ccc(-c2ccccn2)cc1)NC(=O)[C@@H](NC(=O)OC)C(C)(C)C)C(C)(C)C [ATAZANAVIR]
IC50 [7]: ≥ 30 µM

Reference: ChEMBL document CHEMBL5137093, “Improving Drug Delivery While Tailoring Prodrug Activation to Modulate Cmax and Cmin by Optimization of (Carbonyl)oxyalkyl Linker-Based Prodrugs of Atazanavir” (J Med Chem, 2022)
